{"source": "patent US4956294A", "about": "“Culture of Streptoverticillium synroense for producing an antibacterial” (Merck & Co., Inc., priority 1989, dated 1990)", "key": {"B. asaccharolyticus 4271": {"tested_on": "B. asaccharolyticus 4271", "test": "Anaerobic agar dilution, Wilkens-Chalgren agar", "assay_type": "cell-based", "settings": "Porphyromonas asaccharolytica, 4271, 48 h"}, "E. coli TEM 2+ DC2 4352": {"tested_on": "E. coli TEM 2+ DC2 4352", "test": "Agar dilution, trypticase soy agar", "settings": "Escherichia coli, 20 h"}, "[1]": {"tested_on": "Proteus vulgaris 2112 (episome)", "test": "Inhibition zone, agar plate", "assay_type": "cell-based", "settings": "read-out: Inhibition Zone Diameter"}, "Ps. aeruginosa 4279": {"tested_on": "Ps. aeruginosa 4279", "test": "Agar dilution, antagonist-free medium", "settings": "Pseudomonas aeruginosa, 4279, 20 h"}, "C. perfringens 3513": {"tested_on": "C. perfringens 3513", "test": "microbe, parasite or virus in culture", "assay_type": "cell-based", "settings": "Clostridium perfringens, 3513, 48 h"}, "[2]": {"tested_on": "Bacteroides fragilis Met^r . Pen^r 4324", "test": "Anaerobic agar dilution, Wilkens-Chalgren agar", "assay_type": "cell-based", "settings": "48 h"}, "C. ramosum 4272": {"tested_on": "C. ramosum 4272", "test": "Anaerobic agar dilution, Wilkens-Chalgren agar", "assay_type": "cell-based", "settings": "Thomasclavelia ramosa, 4272, 48 h"}, "K. pneumoniae 4005": {"tested_on": "K. pneumoniae 4005", "test": "Agar dilution, trypticase soy agar", "settings": "Klebsiella pneumoniae, 4005, 20 h"}, "E. coli TEM 2+ 4351": {"tested_on": "E. coli TEM 2+ 4351", "test": "Agar dilution, trypticase soy agar", "settings": "Escherichia coli, 20 h"}, "[3]": {"tested_on": "Streptococcus faecium 2820", "test": "Inhibition zone, agar plate", "assay_type": "cell-based", "settings": "Enterococcus faecium, 15λ, read-out: Inhibition Zone Diameter"}, "[4]": {"tested_on": "Pseudomonas aeruginosa 2824", "test": "Inhibition zone, agar plate", "assay_type": "cell-based", "settings": "15λ, read-out: Inhibition Zone Diameter"}, "Prot. morganii Sm^r 2833": {"tested_on": "Prot. morganii Sm^r 2833", "test": "Agar dilution, trypticase soy agar", "settings": "Morganella morganii, 20 h"}, "[5]": {"tested_on": "B. distasonis Pen^r, Fox^r 3445", "test": "Anaerobic agar dilution, Wilkens-Chalgren agar", "assay_type": "cell-based", "settings": "Parabacteroides distasonis, 48 h"}, "C. perfringens 2237": {"tested_on": "C. perfringens 2237", "test": "microbe, parasite or virus in culture", "assay_type": "cell-based", "settings": "Clostridium perfringens, 2237, 48 h"}, "Staph. aureus 2865": {"tested_on": "Staph. aureus 2865", "test": "Agar dilution, antagonist-free medium"}, "E. coli 2891 [6]": {"tested_on": "E. coli 2891", "test": "Agar dilution, antagonist-free medium", "settings": "Escherichia coli, 2891, 20 h"}, "E. coli DC2 4353": {"tested_on": "E. coli DC2 4353", "test": "Agar dilution, antagonist-free medium"}, "[7]": {"tested_on": "Escherichia coli 60 (9637)", "test": "Inhibition zone, agar plate", "assay_type": "cell-based", "settings": "15λ, read-out: Inhibition Zone Diameter"}, "[8]": {"tested_on": "B. distasonis Pen^r, Fox^r, Clind^r 4361", "test": "Anaerobic agar dilution, Wilkens-Chalgren agar", "assay_type": "cell-based", "settings": "Parabacteroides distasonis, 48 h"}, "Prot. vulgaris 2829": {"tested_on": "Prot. vulgaris 2829", "test": "Agar dilution, trypticase soy agar", "settings": "Proteus vulgaris, 2829, 20 h"}, "[9]": {"tested_on": "Corynebacterium pseudodiph. 261 (9742)", "test": "Inhibition zone, agar plate", "assay_type": "cell-based", "settings": "read-out: Inhibition Zone Diameter"}, "C. difficile Fox^r 4380": {"tested_on": "C. difficile Fox^r 4380", "test": "Anaerobic agar dilution, Wilkens-Chalgren agar", "assay_type": "cell-based", "settings": "Clostridioides difficile, 48 h"}, "Escherichia coli 1418": {"tested_on": "Escherichia coli 1418", "test": "Inhibition zone, agar plate", "assay_type": "cell-based", "settings": "15λ, read-out: Inhibition Zone Diameter"}, "[10]": {"tested_on": "Veillonella alcalescens 1952", "test": "Anaerobic agar dilution, Wilkens-Chalgren agar", "assay_type": "cell-based", "settings": "Veillonella parvula, 1952, 48 h"}, "[11]": {"tested_on": "Bifidobacterium dentium Fox^r 4427", "test": "Anaerobic agar dilution, Wilkens-Chalgren agar", "assay_type": "cell-based", "settings": "48 h"}, "Proteus vulgaris 1012": {"tested_on": "Proteus vulgaris 1012", "test": "Inhibition zone, agar plate", "assay_type": "cell-based"}, "[12]": {"tested_on": "Staphylococcus aureus 108 (6538P)", "test": "Inhibition zone, agar plate", "assay_type": "cell-based", "settings": "15λ, read-out: Inhibition Zone Diameter"}, "[13]": {"tested_on": "B. fragilis Clind^r, Fox^r, Tet^r 4360", "test": "Anaerobic agar dilution, Wilkens-Chalgren agar", "assay_type": "cell-based", "settings": "Bacteroides fragilis, 48 h"}, "[14]": {"tested_on": "Prot. mirabilis Gm^r 2830", "test": "Agar dilution, trypticase soy agar", "settings": "Proteus mirabilis, 20 h"}, "E. coli 2891 [15]": {"tested_on": "E. coli 2891", "test": "Agar dilution, trypticase soy agar", "settings": "Escherichia coli, 2891, 20 h"}, "[16]": {"tested_on": "Salmonella gallinarum 1287", "test": "Inhibition zone, agar plate", "assay_type": "cell-based", "settings": "Salmonella enterica, 15λ, read-out: Inhibition Zone Diameter"}, "[17]": {"tested_on": "Proteus vulgaris 838 (21100)", "test": "Inhibition zone, agar plate", "assay_type": "cell-based", "settings": "15λ, read-out: Inhibition Zone Diameter"}, "[18]": {"tested_on": "Brucella bronchiseptica 965", "test": "microbe, parasite or virus in culture", "assay_type": "cell-based", "settings": "Bordetella bronchiseptica, 965, read-out: Inhibition Zone Diameter"}, "Ent. cloacae P99+ 2646": {"tested_on": "Ent. cloacae P99+ 2646", "test": "Agar dilution, trypticase soy agar", "settings": "Enterobacter cloacae, 20 h"}, "C. perfringens 3512": {"tested_on": "C. perfringens 3512", "test": "microbe, parasite or virus in culture", "assay_type": "cell-based", "settings": "Clostridium perfringens, 3512, 48 h"}, "Ent. cloacae P99- 2647": {"tested_on": "Ent. cloacae P99- 2647", "test": "Agar dilution, antagonist-free medium", "settings": "Enterobacter cloacae, P992647, 20 h"}}}
{"molecule": "C[C@H](CNC(=O)[C@H]1N=C(c2cccc(O)c2O)O[C@@H]1C)C(=O)N[C@@H]1CCCN(O)C1=O", "note": "[L-654,040, 2-(2,3-dihydroxyphenyl)-4,5-dihydro-N-[3-[(1-hydroxy-2-oxo-3(R)-piperidinyl)-amino]-2(R)-methyl-3-oxopropyl]-5R-methyl-4S-oxazolecarboxamide]", "values": [{"measurement": "MIC", "setting": "B. asaccharolyticus 4271", "result": "> 128", "unit": "µg/mL"}, {"measurement": "MIC", "setting": "E. coli TEM 2+ DC2 4352", "result": 128, "unit": "µg/mL"}, {"measurement": "zone of inhibition at 500 µg/mL", "setting": "[1]", "result": 16, "unit": "mm"}, {"measurement": "zone of inhibition at 2000 µg/mL", "setting": "[1]", "result": 28, "unit": "mm"}, {"measurement": "MIC", "setting": "Ps. aeruginosa 4279", "result": "> 256", "unit": "µg/mL"}, {"measurement": "solubility", "setting": "Solubility in water; boiling water", "result": "~10000", "unit": "µg/mL"}, {"measurement": "solubility in water", "setting": "Solubility in water; water, for dosing solutions", "result": "limited solubility"}, {"measurement": "MIC", "setting": "C. perfringens 3513", "result": 128, "unit": "µg/mL"}, {"measurement": "MIC", "setting": "[2]", "result": 128, "unit": "µg/mL"}, {"measurement": "MIC", "setting": "C. ramosum 4272", "result": 64, "unit": "µg/mL"}, {"measurement": "MIC", "setting": "K. pneumoniae 4005", "result": "> 128", "unit": "µg/mL"}, {"measurement": "MIC", "setting": "E. coli TEM 2+ 4351", "result": "> 128", "unit": "µg/mL"}, {"measurement": "zone of inhibition at 500 µg/mL", "setting": "[3]; 0.5 mg/ml in distilled H2O", "result": 0, "unit": "mm"}, {"measurement": "zone of inhibition at 2000 µg/mL", "setting": "[3]; 2 mg/ml in distilled H2O", "result": 0, "unit": "mm"}, {"measurement": "zone of inhibition at 500 µg/mL", "setting": "[4]; 0.5 mg/ml in distilled H2O", "result": 0, "unit": "mm"}, {"measurement": "zone of inhibition at 2000 µg/mL", "setting": "[4]; 2 mg/ml in distilled H2O", "result": 0, "unit": "mm"}, {"measurement": "MIC", "setting": "Prot. morganii Sm^r 2833", "result": "> 128", "unit": "µg/mL"}, {"measurement": "MIC", "setting": "[5]", "result": "> 128", "unit": "µg/mL"}, {"measurement": "MIC", "setting": "C. perfringens 2237", "result": 128, "unit": "µg/mL"}, {"measurement": "sensitivity of strain", "setting": "Staph. aureus 2865; Staphylococcus aureus 2865", "result": "sensitive"}, {"measurement": "MIC", "setting": "Staph. aureus 2865; Staphylococcus aureus, 2865, 20 h", "result": 32, "unit": "µg/mL"}, {"measurement": "MIC", "setting": "E. coli 2891 [6]", "result": "> 256", "unit": "µg/mL"}, {"measurement": "relative activity of parent and acetyl derivative", "setting": "E. coli DC2 4353; E. coli permeability mutant", "result": "equal activity"}, {"measurement": "sensitivity of strain", "setting": "E. coli DC2 4353; E. coli permeability mutant", "result": "sensitive"}, {"measurement": "MIC", "setting": "E. coli DC2 4353; Escherichia coli, DC24353, 20 h", "result": 32, "unit": "µg/mL"}, {"measurement": "zone of inhibition at 500 µg/mL", "setting": "[7]; 0.5 mg/ml in distilled H2O", "result": 0, "unit": "mm"}, {"measurement": "zone of inhibition at 2000 µg/mL", "setting": "[7]; 2 mg/ml in distilled H2O", "result": 0, "unit": "mm"}, {"measurement": "MIC", "setting": "[8]", "result": "> 128", "unit": "µg/mL"}, {"measurement": "MIC", "setting": "Prot. vulgaris 2829", "result": "> 128", "unit": "µg/mL"}, {"measurement": "zone of inhibition at 2000 µg/mL", "setting": "[9]; 2 mg/ml in distilled H2O, 15λ", "result": 33, "unit": "mm"}, {"measurement": "zone of inhibition at 500 µg/mL", "setting": "[9]", "result": 28, "unit": "mm"}, {"measurement": "MIC", "setting": "C. difficile Fox^r 4380", "result": 128, "unit": "µg/mL"}, {"measurement": "zone of inhibition at 500 µg/mL", "setting": "Escherichia coli 1418; 0.5 mg/ml in distilled H2O", "result": 0, "unit": "mm"}, {"measurement": "zone of inhibition at 2000 µg/mL", "setting": "Escherichia coli 1418; 2 mg/ml in distilled H2O", "result": 13, "unit": "mm"}, {"measurement": "MIC", "setting": "[10]", "result": "> 128", "unit": "µg/mL"}, {"measurement": "MIC", "setting": "[11]", "result": "> 128", "unit": "µg/mL"}, {"measurement": "zone of inhibition at 500 µg/mL", "setting": "Proteus vulgaris 1012; Proteus vulgaris, 1012, read-out: Inhibition Zone Diameter", "result": 24, "unit": "mm"}, {"measurement": "zone of inhibition at 2000 µg/mL", "setting": "Proteus vulgaris 1012; Proteus vulgaris, 1012, 2 mg/ml in distilled H2O, 15λ, read-out: Inhibition Zone Diameter", "result": 34, "unit": "mm"}, {"measurement": "zone of inhibition at 500 µg/mL", "setting": "[12]; 0.5 mg/ml in distilled H2O", "result": 0, "unit": "mm"}, {"measurement": "zone of inhibition at 2000 µg/mL", "setting": "[12]; 2 mg/ml in distilled H2O", "result": 18, "unit": "mm"}, {"measurement": "MIC", "setting": "[13]", "result": "> 128", "unit": "µg/mL"}, {"measurement": "MIC", "setting": "[14]", "result": "> 128", "unit": "µg/mL"}, {"measurement": "MIC", "setting": "E. coli 2891 [15]", "result": "> 128", "unit": "µg/mL"}, {"measurement": "zone of inhibition at 500 µg/mL", "setting": "[16]; 0.5 mg/ml in distilled H2O", "result": 0, "unit": "mm"}, {"measurement": "zone of inhibition at 2000 µg/mL", "setting": "[16]; 2 mg/ml in distilled H2O", "result": 0, "unit": "mm"}, {"measurement": "zone of inhibition at 500 µg/mL", "setting": "[17]; 0.5 mg/ml in distilled H2O", "result": 18, "unit": "mm"}, {"measurement": "zone of inhibition at 2000 µg/mL", "setting": "[17]; 2 mg/ml in distilled H2O", "result": 31, "unit": "mm"}, {"measurement": "zone of inhibition at 500 µg/mL", "setting": "[18]", "result": 16, "unit": "mm"}, {"measurement": "zone of inhibition at 2000 µg/mL", "setting": "[18]", "result": 24, "unit": "mm"}, {"measurement": "MIC", "setting": "Ent. cloacae P99+ 2646", "result": "> 128", "unit": "µg/mL"}, {"measurement": "MIC", "setting": "C. perfringens 3512", "result": 64, "unit": "µg/mL"}, {"measurement": "MIC", "setting": "Ent. cloacae P99- 2647", "result": "> 256", "unit": "µg/mL"}]}
